The melting point is the temperature, or range, at which the solid turns liquid.

Some results are limits rather than exact numbers.

The compound `CC(=O)N(C(C)=O)c1ccc(C=Cc2ccc3ccccc3n2)cc1` yielded a melting point of 148 to 150 °C. `CC(C)(C)CNc1nc(C#N)nc2ccc(OCc3ccncc3)cc12` returned a melting point of 203 to 205 °C.

`O=S(=S)(OC1O[C@H](COCc2ccccc2)[C@@H](OCc2ccccc2)[C@H](OCc2ccccc2)[C@H]1OCc1ccccc1)c1ccccc1` (stereo partly specified) displayed a melting point of 106 to 108 °C. In the case of `Cc1cccc(Cn2c(NC3CCN(CCc4c(C)nc5ccccn5c4=O)CC3)nc3cccnc32)n1`, the melting point is 233 °C.

Compound `C=Cn1c2ccccc2c2cc(Br)ccc21` gave a melting point of 74 to 74.5 °C. The value for `CC1(C)CCCSc2cc(Br)ccc21` was 81 to 82 °C. Consider `CN1CCN(C(=O)c2cc(N)cc3c2OCCO3)CC1`, for which the melting point stood at 170 °C. In turn, `CC(=O)N1CCC(Oc2ccc(N3CCCC3)cc2)CC1` displayed a melting point of 69 to 70 °C. As to `O=c1[nH]c(C(F)(F)C(F)(F)F)nc2ncc(Br)cc12`, the melting point lay within 200 to 202 °C. The value for `NC(C(=O)O)C(=CF)c1c[nH]c2ccc(O)cc12` (stereo unspecified) was more than 250 °C; that for `O=c1c2cccc(O)c2nc(-c2ccc(O)cc2)n1-c1ccc(OCCCl)cc1` was 274 to 276 °C. `CCc1c(Cc2ccccc2)c2ccc(OC)cc2n1CC(=O)NN` registered a melting point of 164 to 166 °C. The value for `CC(C)(C)c1cc(SCCSCC(=O)O)cc(C(C)(C)C)c1O` was 86 °C. `NC(=O)CC[C@H](NCc1ccccc1C(=O)O)C(=O)O` registered a melting point of 132 to 133 °C. Regarding `Cc1nc(-n2cnn(Cc3ccc(F)cc3)c2=O)sc1C(=O)NCc1ncco1`, the melting point is 152 to 153 °C. For the compound `CCOC(=O)c1c(Nc2ccccc2N)c(C)cn1C`, the melting point amounted to 90 °C. Under `COc1ccccc1C=C1N=C(C)OC1=O` stands 151 to 153 °C; under `CCC12CCC3=C(CC(C)c4cc(OC)ccc43)C1=CCC21OCCO1` (stereo unspecified), 116 to 119 °C.

Compound `CCOc1cccc(CC(=O)O)c1OCCCc1cc(OC(C)C)nn1Cc1ccc(Cl)cc1Cl` gave a melting point of 132 to 133 °C. As for `CCNC(=O)Nc1nc2cc(-c3ccc(N(C)C)nc3)ccn2n1`, the melting point was 285 to 290 °C. The value for `C=C(CC(NC(=O)OC(C)(C)C)C(=O)OCC)CC(NC=O)(C(=O)OCC)C(=O)OCC` (stereo unspecified) was 68 °C; that for `O=c1c2ccc3c(c2oc2cccc(F)c12)CC(CO)O3` (stereo unspecified) was 220 to 221 °C; that for `CCOC(=O)c1cnc(-c2cc3cccc(N)c3n2COC)s1` was 188 to 190 °C. The value for `Cc1ccc2c(c1)CNCC2c1ccc(O)c(O)c1` (stereo unspecified) was 192 to 195 °C; that for `CCCCCCCNC(=O)Nc1ccc(NC(C)=O)cc1C(=O)NC1CCN(C(c2ccccc2)c2ccccc2)CC1` was 113 to 115 °C; that for `O=C1NCCc2cc(I)ccc21` was more than 300 °C.

In turn, `Cc1nc(C)c(Cl)c(NCc2ccc(Oc3ccc4ncc([N+](=O)[O-])n4n3)c(Cl)n2)n1` came in with a melting point of 184 to 186 °C. `CCn1c(COCc2ccc(OC)cc2)nc(C(C)C)c1Sc1cc(Cl)cc(Cl)c1` returned a melting point of 120 to 121 °C.

On to `COc1ccc(C(=O)C23CCCCC2C(=O)O3)cc1` (stereo unspecified), for which the melting point fell in the range of 77.5 to 78.5 °C. Under `COc1cc2[nH]c(C)c(C(=O)C(=O)N3CCC(C(=O)c4ccccc4)CC3)c2cc1OC` stands 188 to 190 °C; under `CCCCC(C(=O)c1ccc(Cl)cc1)n1cncn1` (stereo unspecified), 81 to 83 °C; under `O=c1[nH]c(=O)n(Cc2cccc(OCc3csc(-c4ccccc4)n3)c2)o1`, 139 to 140 °C.

With `Cc1nc(CC2CCN(c3ccccc3)CC2)nc(C(=O)NCC(=O)O)c1O`, the melting point was found to be 141 °C. Take `CSCc1nnc(-c2ccc3occ(-c4cccc(OC(F)(F)F)c4)c3c2)o1`: the melting point is 84 to 85 °C. Under `C#CCCCCCC(=O)Nc1nc2nn(C)cc2c2nc(-c3ccco3)nn12` stands 204 to 208 °C. Under `CN1CCN(C2CC(=O)c3ccc(F)cc32)CC1` (stereo unspecified) stands 102 to 103 °C.
